Reference: patent publication US20230063238A1, “IMMUNOMODULATORS” (Bristol-Myers Squibb Company, priority 2020, published 2023)
Starred links: 1 amine or outer side, 2 acyl side, 3 side chain; linkers in the order of their positions; H or OH if unused. Positions of bridges follow the written chain, without caps; N, C: chain ends. Non-standard residues stand in square brackets, D forms with d. Residues, ends and D or L forms follow the SMILES beside them. *: point of attachment. Trp(1-CH2CO2Me) = COC(=O)Cn1cc(C[C@H](N)C(=O)O)c2ccccc21; Trp(1-CH2COOH) = N[C@@H](Cc1cn(CC(=O)O)c2ccccc12)C(=O)O; Hyp = O=C(O)[C@@H]1C[C@@H](O)CN1; X8 = O=C(Nc1cc(F)cc(F)c1)C(=O)*; X5 = O=C(C(=O)*)N1CCc2ccccc2C1; Oxalyl = O=C(C(=O)[*:2])[*:1]; X9 = O=C(Nc1ccc(F)cc1F)C(=O)*; NMeNle = CCCC[C@H](NC)C(=O)O; X4 = O=C(Nc1cccc(F)c1)C(=O)*; X6 = CN1CCN(C(=O)C(=O)*)CC1; X1 = O=C(Oc1ccccc1)C(=O)*; NMeA = CN[C@@H](C)C(=O)O; Dab = NCC[C@H](N)C(=O)O; Dap = NC[C@H](N)C(=O)O; X7 = CN(C)C(=O)C(=O)*

molecular target: T1, PD-1/PD-L1 (Homo sapiens, UniProt Q9NZQ7); assay: PD-1/PD-L1 Homogenous Time-Resolved Fluorescence (HTRF) binding assay; conditions: PD-L1-His 10 nM final, PD-1-Ig 20 nM final; inhibitors pre-incubated with PD-L1-His for 15 m
T1 construct: TVMV protease site linker (C); made in house; host or cells: HEK293T cells
T1 sequence (Q9NZQ7 18-239): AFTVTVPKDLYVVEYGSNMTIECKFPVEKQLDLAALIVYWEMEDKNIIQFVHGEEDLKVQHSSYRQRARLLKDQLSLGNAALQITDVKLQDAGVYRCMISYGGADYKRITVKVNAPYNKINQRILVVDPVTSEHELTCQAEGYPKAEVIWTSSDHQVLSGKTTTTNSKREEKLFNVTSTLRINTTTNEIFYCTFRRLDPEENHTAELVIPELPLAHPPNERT
Description: The ability of the compounds of formula (I) to bind to PD-L1 was investigated using a PD-1/PD-L1 Homogenous Time-Resolved Fluorescence (HTRF) binding assay.
Homogenous Time-Resolved Fluorescence (HTRF) Binding Assay
The interaction of PD-1 and PD-L1 can be assessed using soluble, purified preparations of the extracellular domains of the two proteins. The PD-1 and PD-L1 protein extracellular domains were expressed as fusion proteins with detection tags, for PD-1, the tag was the Fc portion of Immunoglobulin (PD-1-Ig) and for PD-L1 it was the 6 histidine motif (PD-L1-His). All binding studies were performed in an HTRF assay buffer consisting of dPBS supplemented with 0.1% […] bovine serum albumin and 0.05% (v/v) Tween-20. For the h/PD-L1-His binding assay, inhibitors were pre-incubated with PD-L1-His (10 nM final) for 15 m in 4 μl of assay buffer, followed by addition of PD-1-Ig (20 nM final) in 1 μl of assay buffer and further incubation for 15m. HTRF detection was achieved using europium crypate-labeled anti-Ig (1 nM final) and allophycocyanin (APC) labeled anti-His (20 nM final). Antibodies were diluted in HTRF detection buffer and 5 μl was dispensed on top of the binding reaction. The reaction mixture was allowed to equilibrate for 30 minutes and the resulting signal (665 nm/620 nm ratio) was obtained using an EnVision fluorometer. Additional binding assays were established between the human proteins PD-1-Ig/PD-L2-His (20 & 5 nM, respectively) and CD80-His/PD-L1-Ig (100 & 10 nM, respectively).
Recombinant Proteins: Human PD-1 (25-167) with a C-terminal human Fc domain of immunoglobulin G (Ig) epitope tag [hPD-1 (25-167)-3S-IG] and human PD-L1 (18-239) with a C-terminal His epitope tag [hPD-L1(18-239)-TVMV-His] were expressed in HEK293T cells and purified sequentially by ProteinA affinity chromatography and size exclusion chromatography. Human PD-L2-His and CD80-His was obtained through commercial sources.
Table 1 lists the IC50 values for representative examples of this disclosure measured in the PD-1/PD-L1 Homogenous Time-Resolved Fluorescence (HTRF) binding assay.

Row | Compound | IC50 [nM]
1 | CCCC[C@H]1C(=O)N(C)[C@@H](CCCC)C(=O)N[C@@H](CC(C)C)C(=O)N[C@H](C(=O)NCC(N)=O)CSCC(=O)N[C@@H](Cc2ccc(O)cc2)C(=O)N(C)[C@@H](C)C(=O)N[C@@H](CC(N)=O)C(=O)N2CCC[C@H]2C(=O)N[C@@H](CNC(=O)C(=O)N2CCc3ccccc3C2)C(=O)N[C@@H](CC(C)C)C(=O)N2C[C@H](O)C[C@H]2C(=O)N[C@@H](Cc2c[nH]c3ccccc23)C(=O)N[C@@H](CCNC(=O)C(=O)N2CCc3ccccc3C2)C(=O)N[C@@H](Cc2cn(CC(=O)OC)c3ccccc23)C(=O)N1C [Compound 2001] ({CH2CO}-Y[NMeA]NP[Dap](X5)L[Hyp]W[Dab](X5)[Trp(1-CH2CO2Me)][NMeNle][NMeNle]LCG-NH2; thioether N-14) | 3.4
2 | CCCC[C@H]1C(=O)N(C)[C@@H](CCCC)C(=O)N[C@@H](CC(C)C)C(=O)N[C@H](C(=O)NCC(N)=O)CSCC(=O)N[C@@H](Cc2ccc(O)cc2)C(=O)N(C)[C@@H](C)C(=O)N[C@@H](CC(N)=O)C(=O)N2CCC[C@H]2C(=O)N[C@@H](CNC(=O)C(=O)Nc2cccc(F)c2)C(=O)N[C@@H](CC(C)C)C(=O)N2C[C@H](O)C[C@H]2C(=O)N[C@@H](Cc2c[nH]c3ccccc23)C(=O)N[C@@H](CCNC(=O)C(=O)Nc2cccc(F)c2)C(=O)N[C@@H](Cc2cn(CC(=O)OC)c3ccccc23)C(=O)N1C [Compound 2003] ({CH2CO}-Y[NMeA]NP[Dap](X4)L[Hyp]W[Dab](X4)[Trp(1-CH2CO2Me)][NMeNle][NMeNle]LCG-NH2; thioether N-14) | 370
3 | CCCC[C@H]1C(=O)N(C)[C@@H](CCCC)C(=O)N[C@@H](CC(C)C)C(=O)N[C@H](C(=O)NCC(N)=O)CSCC(=O)N[C@@H](Cc2ccc(O)cc2)C(=O)N(C)[C@@H](C)C(=O)N[C@@H](CC(N)=O)C(=O)N2CCC[C@H]2C(=O)N[C@@H](CNC(=O)C(=O)N2CCN(C)CC2)C(=O)N[C@@H](CC(C)C)C(=O)N2C[C@H](O)C[C@H]2C(=O)N[C@@H](Cc2c[nH]c3ccccc23)C(=O)N[C@@H](CCNC(=O)C(=O)N2CCN(C)CC2)C(=O)N[C@@H](Cc2cn(CC(=O)OC)c3ccccc23)C(=O)N1C [Compound 2007] ({CH2CO}-Y[NMeA]NP[Dap](X6)L[Hyp]W[Dab](X6)[Trp(1-CH2CO2Me)][NMeNle][NMeNle]LCG-NH2; thioether N-14) | 9.1
4 | CCCC[C@H]1C(=O)N(C)[C@@H](CCCC)C(=O)N[C@@H](CC(C)C)C(=O)N[C@H](C(=O)NCC(N)=O)CSCC(=O)N[C@@H](Cc2ccc(O)cc2)C(=O)N(C)[C@@H](C)C(=O)N[C@@H](CC(N)=O)C(=O)N2CCC[C@H]2C(=O)N[C@@H](CNC(=O)C(=O)Nc2ccc(F)cc2F)C(=O)N[C@@H](CC(C)C)C(=O)N2C[C@H](O)C[C@H]2C(=O)N[C@@H](Cc2c[nH]c3ccccc23)C(=O)N[C@@H](CCNC(=O)C(=O)Nc2ccc(F)cc2F)C(=O)N[C@@H](Cc2cn(CC(=O)OC)c3ccccc23)C(=O)N1C [Compound 2010] ({CH2CO}-Y[NMeA]NP[Dap](X9)L[Hyp]W[Dab](X9)[Trp(1-CH2CO2Me)][NMeNle][NMeNle]LCG-NH2; thioether N-14) | 1.8
5 | CCCC[C@H]1C(=O)N(C)[C@@H](CCCC)C(=O)N[C@@H](CC(C)C)C(=O)N[C@H](C(=O)NCC(N)=O)CSCC(=O)N[C@@H](Cc2ccc(O)cc2)C(=O)N(C)[C@@H](C)C(=O)N[C@@H](CC(N)=O)C(=O)N2CCC[C@H]2C(=O)N[C@@H](CNC(=O)C(=O)Nc2cc(F)cc(F)c2)C(=O)N[C@@H](CC(C)C)C(=O)N2C[C@H](O)C[C@H]2C(=O)N[C@@H](Cc2c[nH]c3ccccc23)C(=O)N[C@@H](CCNC(=O)C(=O)Nc2cc(F)cc(F)c2)C(=O)N[C@@H](Cc2cn(CC(=O)OC)c3ccccc23)C(=O)N1C [Compound 2002] ({CH2CO}-Y[NMeA]NP[Dap](X8)L[Hyp]W[Dab](X8)[Trp(1-CH2CO2Me)][NMeNle][NMeNle]LCG-NH2; thioether N-14) | 350

More lines, now with the values ahead:

Row | IC50 [nM] | Compound
6 | 5.4 | CCCC[C@H]1C(=O)N(C)[C@@H](CCCC)C(=O)N[C@@H](CC(C)C)C(=O)N[C@H](C(=O)NCC(N)=O)CSCC(=O)N[C@@H](Cc2ccc(O)cc2)C(=O)N(C)[C@@H](C)C(=O)N[C@@H](CC(N)=O)C(=O)N2CCC[C@H]2C(=O)N[C@@H](CNC(=O)C(=O)Oc2ccccc2)C(=O)N[C@@H](CC(C)C)C(=O)N2C[C@H](O)C[C@H]2C(=O)N[C@@H](Cc2c[nH]c3ccccc23)C(=O)N[C@@H](CCNC(=O)C(=O)Oc2ccccc2)C(=O)N[C@@H](Cc2cn(CC(=O)O)c3ccccc23)C(=O)N1C [Compound 1001] ({CH2CO}-Y[NMeA]NP[Dap](X1)L[Hyp]W[Dab](X1)[Trp(1-CH2COOH)][NMeNle][NMeNle]LCG-NH2; thioether N-14)
7 | 3.1 | CCCC[C@H]1C(=O)N(C)[C@@H](CCCC)C(=O)N[C@@H](CC(C)C)C(=O)N[C@H](C(=O)NCC(N)=O)CSCC(=O)N[C@@H](Cc2ccc(O)cc2)C(=O)N(C)[C@@H](C)C(=O)N[C@@H](CC(N)=O)C(=O)N2CCC[C@H]2C(=O)N[C@@H](CNC(=O)C(=O)O)C(=O)N[C@@H](CC(C)C)C(=O)N2C[C@H](O)C[C@H]2C(=O)N[C@@H](Cc2c[nH]c3ccccc23)C(=O)N[C@@H](CCN)C(=O)N[C@@H](Cc2cn(CC(=O)OC)c3ccccc23)C(=O)N1C [Compound 1002] ({CH2CO}-Y[NMeA]NP[Dap](Oxalyl)L[Hyp]W[Dab][Trp(1-CH2CO2Me)][NMeNle][NMeNle]LCG-NH2; thioether N-14)
8 | 3.6 | CCCC[C@H]1C(=O)N(C)[C@@H](CCCC)C(=O)N[C@@H](CC(C)C)C(=O)N[C@H](C(=O)NCC(N)=O)CSCC(=O)N[C@@H](Cc2ccc(O)cc2)C(=O)N(C)[C@@H](C)C(=O)N[C@@H](CC(N)=O)C(=O)N2CCC[C@H]2C(=O)N[C@@H](CNC(=O)C(=O)O)C(=O)N[C@@H](CC(C)C)C(=O)N2C[C@H](O)C[C@H]2C(=O)N[C@@H](Cc2c[nH]c3ccccc23)C(=O)N[C@@H](CCNC(=O)C(=O)O)C(=O)N[C@@H](Cc2cn(CC(=O)O)c3ccccc23)C(=O)N1C [Compound 4001] ({CH2CO}-Y[NMeA]NP[Dap](Oxalyl)L[Hyp]W[Dab](Oxalyl)[Trp(1-CH2COOH)][NMeNle][NMeNle]LCG-NH2; thioether N-14)
9 | 2.6 | CCCC[C@H]1C(=O)N(C)[C@@H](CCCC)C(=O)N[C@@H](CC(C)C)C(=O)N[C@H](C(=O)NCC(N)=O)CSCC(=O)N[C@@H](Cc2ccc(O)cc2)C(=O)N(C)[C@@H](C)C(=O)N[C@@H](CC(N)=O)C(=O)N2CCC[C@H]2C(=O)N[C@@H](CNC(=O)C(=O)O)C(=O)N[C@@H](CC(C)C)C(=O)N2C[C@H](O)C[C@H]2C(=O)N[C@@H](Cc2c[nH]c3ccccc23)C(=O)N[C@@H](CCNC(=O)C(=O)O)C(=O)N[C@@H](Cc2cn(CC(=O)OC)c3ccccc23)C(=O)N1C [Compound 5001] ({CH2CO}-Y[NMeA]NP[Dap](Oxalyl)L[Hyp]W[Dab](Oxalyl)[Trp(1-CH2CO2Me)][NMeNle][NMeNle]LCG-NH2; thioether N-14)
10 | 2.4 | CCCC[C@H]1C(=O)N(C)[C@@H](CCCC)C(=O)N[C@@H](CC(C)C)C(=O)N[C@H](C(=O)NCC(N)=O)CSCC(=O)N[C@@H](Cc2ccc(O)cc2)C(=O)N(C)[C@@H](C)C(=O)N[C@@H](CC(N)=O)C(=O)N2CCC[C@H]2C(=O)N[C@@H](CNC(=O)C(=O)N(C)C)C(=O)N[C@@H](CC(C)C)C(=O)N2C[C@H](O)C[C@H]2C(=O)N[C@@H](Cc2c[nH]c3ccccc23)C(=O)N[C@@H](CCNC(=O)C(=O)N(C)C)C(=O)N[C@@H](Cc2cn(CC(=O)OC)c3ccccc23)C(=O)N1C [Compound 2005] ({CH2CO}-Y[NMeA]NP[Dap](X7)L[Hyp]W[Dab](X7)[Trp(1-CH2CO2Me)][NMeNle][NMeNle]LCG-NH2; thioether N-14)
11 | 0.64 | CCCC[C@H]1C(=O)N(C)[C@@H](CCCC)C(=O)N[C@@H](CC(C)C)C(=O)N[C@H](C(=O)NCC(N)=O)CSCC(=O)N[C@@H](Cc2ccc(O)cc2)C(=O)N(C)[C@@H](C)C(=O)N[C@@H](CC(N)=O)C(=O)N2CCC[C@H]2C(=O)N[C@@H](CNC(=O)C(=O)Oc2ccccc2)C(=O)N[C@@H](CC(C)C)C(=O)N2C[C@H](O)C[C@H]2C(=O)N[C@@H](Cc2c[nH]c3ccccc23)C(=O)N[C@@H](CCNC(=O)C(=O)Oc2ccccc2)C(=O)N[C@@H](Cc2cn(CC(=O)OC)c3ccccc23)C(=O)N1C [Compound 3003] ({CH2CO}-Y[NMeA]NP[Dap](X1)L[Hyp]W[Dab](X1)[Trp(1-CH2CO2Me)][NMeNle][NMeNle]LCG-NH2; thioether N-14)
